Experimental data published in patent publication US20150065470A1, “Steroid Sulfatase Inhibitor Regimen for the Treatment of Endometriosis” (priority 2012, published 2015).
Where “and” joins values, the source holds several entries; their conditions need not be identical. Identical values can stand only once.

What was measured:
STS = test: Functional biomarkers of STS activity (E1-S to E1 and DHEA-S to DHEA ratios), Example 2; assay type: in vivo, human
Protocol: Hormone profiles were determined as described in Example 1.
As described before, STS converts sulphate precursors of estrogens.

[1] = molecular target: T1, Steroid Sulfatase in endometrium (Homo sapiens, UniProt P08842); test: STS activity in endometrium, Example 2 (LC-MS/MS); assay type: in vivo
T1 construct: from tissue; host or cells: endometrium (biopsies) of dosed women
T1 sequence (P08842 22-583): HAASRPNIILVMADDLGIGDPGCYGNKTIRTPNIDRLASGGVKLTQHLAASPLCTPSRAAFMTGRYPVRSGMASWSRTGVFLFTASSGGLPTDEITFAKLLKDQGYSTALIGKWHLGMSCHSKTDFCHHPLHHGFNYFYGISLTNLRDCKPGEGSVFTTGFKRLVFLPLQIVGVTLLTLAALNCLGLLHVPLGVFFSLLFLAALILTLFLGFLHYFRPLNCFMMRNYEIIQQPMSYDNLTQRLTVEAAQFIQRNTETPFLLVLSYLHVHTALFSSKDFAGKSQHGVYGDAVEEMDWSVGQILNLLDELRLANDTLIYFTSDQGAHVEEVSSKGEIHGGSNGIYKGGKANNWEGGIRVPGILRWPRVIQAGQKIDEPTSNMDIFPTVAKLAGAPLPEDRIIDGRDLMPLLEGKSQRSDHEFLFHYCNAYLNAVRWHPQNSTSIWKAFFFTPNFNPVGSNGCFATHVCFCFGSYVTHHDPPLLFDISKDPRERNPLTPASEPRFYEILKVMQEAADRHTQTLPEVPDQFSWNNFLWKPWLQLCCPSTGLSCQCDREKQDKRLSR
Protocol: STS activity was determined by spiking specimens with labelled E1-S and by measuring its conversion to E1 per gram protein under standardized incubation conditions using LC-MS/MS. Protein concentration was evaluated with a validated colorimetric assay (Bradford method).

[2] = tested on: endometriosis-like lesion; conditions: daily oral dose of 0.5 or 1 mg/kg for 21 days, cited from earlier work
E2 (serum estradiol) = test: Serum hormonal profile incl. estradiol concentrations, Example 1; assay type: in vivo, human
Protocol: Pharmacodynamic properties were investigated by assessment of the STS activity in PBMCs and by measurement of the serum hormonal profile comprising the ratio of E1-S to E1 and DHEA-S to DHEA. […] Hormone profiles were analysed using commercially available ELISA or RIA kits.

[3] = NETA treatment period, days 8 to 29
[4] = multiple dose 0.25 mg weekly x4, Cycle 1
[5] = multiple dose 0.25 mg weekly x4, Cycle 2
[6] = multiple dose 0.25 mg weekly x4, Cycle 3
[7] = multiple dose 1 mg weekly x4, Cycle 1
[8] = multiple dose 1 mg weekly x4, Cycle 2
[9] = multiple dose 1 mg weekly x4, Cycle 3
[10] = multiple dose 4 mg weekly x4, Cycle 1
[11] = multiple dose 4 mg weekly x4, Cycle 2
[12] = multiple dose 4 mg weekly x4, Cycle 3

C[C@]12CC[C@@H]3c4ccc(OS(N)(=O)=O)cc4CC[C@H]3[C@@H]1CC[C@@H]2O [E2MATE, Estradiol-3-o-sulfamate]
Baseline relative change of the DHEA-S/DHEA [%] (STS; Day 1): 0% | Baseline relative change of the E1-S/E1 [%] (STS; Day 1): 0% | Baseline relative change of the DHEA-S/DHEA [%] (STS; Day 8): 133% | Baseline relative change of the E1-S/E1 [%] (STS; Day 8): 208% | Baseline relative change of the DHEA-S/DHEA [%] (STS; Day 15): 116% | Baseline relative change of the E1-S/E1 [%] (STS; Day 15): 282% | Baseline relative change of the DHEA-S/DHEA [%] (STS; Day 22): 113% | Baseline relative change of the E1-S/E1 [%] (STS; Day 22): 218% | Baseline relative change of the DHEA-S/DHEA [%] (STS; Day 29): 148% | Baseline relative change of the E1-S/E1 [%] (STS; Day 29): 194% | Baseline relative change of the DHEA-S/DHEA [%] (STS; Day 57): 195% | Baseline relative change of the E1-S/E1 [%] (STS; Day 57): 218% | Baseline relative change of the DHEA-S/DHEA [%] (STS; Day 85): 232% | Baseline relative change of the E1-S/E1 [%] (STS; Day 85): 243% | Baseline relative change of the DHEA-S/DHEA [%] (STS; Day 113): 175% | Baseline relative change of the E1-S/E1 [%] (STS; Day 113): 400% | baseline relative mean increases of the DHEA-S to DHEA ratio (up to) (STS; [3]): up to 265% | baseline relative mean increases of the E1-S to E1 ratio (up to) (STS; [3]): up to 282% | AVG [%] average inhibition of Steroid Sulfatase in endometrium (average effect over time (AUC)) ([1]; E2MATE 4 mg weekly and/or NETA 10 mg daily for 4 weeks): 66.6 (2.7) % and 66.60% | STS inhibition [%] in endometrium ([1]; end of treatment, between Day 25 and Day 29): 91% and 90.66% | Emax ([1]; read-out: Emax [%] maximal inhibition of Steroid Sulfatase in endometrium): 91% | STS inhibition [%] in endometrium, After treatment ([1]; third biopsy day, 1 month after the end of the treatment (approximately 50 days after dosing)): 88% and 87.50% | lesion weight and size ([2]; end of treatment): decreased | histology of the uterus (indicative of some estrogenic activity) [2]: some stromal oedema was observed | number of lesions [2]: without a reduction | Avg estradiol concentration, Mean (E2 (serum estradiol); [4]): 135.7 ng/L | Max estradiol concentration, Mean (E2 (serum estradiol); [4]): 305.3 ng/L | Avg estradiol concentration, Mean (E2 (serum estradiol); [5]): 116.0 ng/L | Max estradiol concentration, Mean (E2 (serum estradiol); [5]): 260.5 ng/L | Avg estradiol concentration, Mean (E2 (serum estradiol); [6]): 107.1 ng/L | Max estradiol concentration, Mean (E2 (serum estradiol); [6]): 185.4 ng/L | Avg estradiol concentration, Mean (E2 (serum estradiol); [7]): 126.0 ng/L | Max estradiol concentration, Mean (E2 (serum estradiol); [7]): 278.6 ng/L | Avg estradiol concentration, Mean (E2 (serum estradiol); [8]): 109.0 ng/L | Max estradiol concentration, Mean (E2 (serum estradiol); [8]): 193.4 ng/L | Avg estradiol concentration, Mean (E2 (serum estradiol); [9]): 110.0 ng/L | Max estradiol concentration, Mean (E2 (serum estradiol); [9]): 221.6 ng/L | Avg estradiol concentration, Mean (E2 (serum estradiol); [10]): 134.8 ng/L | Max estradiol concentration, Mean (E2 (serum estradiol); [10]): 317.8 ng/L | Avg estradiol concentration, Mean (E2 (serum estradiol); [11]): 100.9 ng/L | Max estradiol concentration, Mean (E2 (serum estradiol); [11]): 207.7 ng/L | Avg estradiol concentration, Mean (E2 (serum estradiol); [12]): 94.9 ng/L | Max estradiol concentration, Mean (E2 (serum estradiol); [12]): 180.9 ng/L | differences in mean concentration-time profiles of E2, P4, LH, FSH, T and D4A compared to placebo (E2 (serum estradiol); multiple dose administration): No clinically relevant dose-related differences | Avg (weighted average) estradiol concentration, Mean (E2 (serum estradiol); single dose 0.25 mg E2MATE): 141.2 ng/L | Max estradiol concentration, Mean (E2 (serum estradiol); single dose 0.25 mg E2MATE): 335.1 ng/L | Avg (weighted average) estradiol concentration, Mean (E2 (serum estradiol); single dose 1 mg E2MATE): 131.0 ng/L | Max estradiol concentration, Mean (E2 (serum estradiol); single dose 1 mg E2MATE): 318.1 ng/L | Avg (weighted average) estradiol concentration, Mean (E2 (serum estradiol); single dose 4 mg E2MATE): 113.8 ng/L | Max estradiol concentration, Mean (E2 (serum estradiol); single dose 4 mg E2MATE): 275.3 ng/L | Avg (weighted average) estradiol concentration, Mean (E2 (serum estradiol); single dose 8 mg E2MATE): 109.3 ng/L | Max estradiol concentration, Mean (E2 (serum estradiol); single dose 8 mg E2MATE): 221.1 ng/L | effects on mean concentration-time profiles of E2, P4, LH, FSH, T and D4A compared to placebo (E2 (serum estradiol); single dose administration): No clinically relevant effects
